The values that follow are results of earlier work, collected in patent publication US9795689B2, “Crosslinked polymer nano-assemblies and uses thereof” (University of Massachusetts, priority 2012, dated 2017).

As to `C=C(C)C(=O)OCCN(C(C)C)C(C)C` [DPA, 2-(diisopropylamino)ethyl methacrylate], the “pKa of the protonated form of the amine” value is listed as “around 6.2”.
